6 cell lines from the supplement of paper PMC10307832 can be followed below.

Common to all, as to assay: relative viability (nuclei count vs DMSO), 5 days (fraction); higher = more cells survive
Compound in the experiment “Masitinib + Phenformin”: Cc1ccc(NC(=O)c2ccc(CN3CCN(C)CC3)cc2)cc1Nc1nc(-c2cccnc2)cs1 [Masitinib] + N=C(N)NC(=N)NCCc1ccccc1 [Phenformin] (partner 250 µM)
The procedure, abridged: (§1)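 Lung cancer cell lines, seeded in 1536-well plates, were treated the following day by pin tool with a single drug or with five library-drug doses (not always all listed) in √10 steps on top of a fixed anchor-drug dose. Cells were fixed and nuclei stained in one step after 5 days, and nuclei were counted. Relative viability is the nuclei count for treated wells divided by that for vehicle wells, reported as medians of duplicate plates.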

Compound in the experiment “Masitinib + Luminespib”: Cc1ccc(NC(=O)c2ccc(CN3CCN(C)CC3)cc2)cc1Nc1nc(-c2cccnc2)cs1 [Masitinib] + CCNC(=O)c1noc(-c2cc(C(C)C)c(O)cc2O)c1-c1ccc(CN2CCOCC2)cc1 [Luminespib] (partner 0.01 µM)
The procedure, abridged: as §1

Compound in experiment [1]: CC1=CC(=CC=C1)NC2=NC(=CS2)C3=CC=NC=C3 + CS(=O)(=O)CCNCc1ccc(-c2ccc3ncnc(Nc4ccc(OCc5cccc(F)c5)c(Cl)c4)c3c2)o1 [Lapatinib] (partner 2 µM)
Put shortly:
as §1

Compound in the experiment “Masitinib + Palbociclib”: Cc1ccc(NC(=O)c2ccc(CN3CCN(C)CC3)cc2)cc1Nc1nc(-c2cccnc2)cs1 [Masitinib] + CC(=O)c1c(C)c2cnc(Nc3ccc(N4CCNCC4)cn3)nc2n(C2CCCC2)c1=O [Palbociclib] (partner 0.5 µM)
Put shortly:
as §1

As to NCI-H3122, the relative viability with Masitinib + Phenformin (first compound 0.03162 µM) was found to be 0.396; in the experiment with Masitinib + Phenformin (first compound 0.3162 µM) it was 0.315; with Masitinib + Phenformin (first compound 1 µM), 0.312; with Masitinib + Luminespib (first compound 0.01 µM) it was 0.109; with Masitinib + Luminespib (first compound 0.03162 µM), 0.0826; with Masitinib + Luminespib (first compound 0.1 µM), 0.0942. The relative viability in the experiment with Masitinib + Luminespib (first compound 0.3162 µM) came out at 0.109; with Masitinib + Luminespib (first compound 1 µM), 0.0792; in experiment [1] (first compound 0.08 µM), 1.05; in experiment [1] (first compound 0.253 µM), 1.08; in experiment [1] (first compound 0.8 µM), 1.05; in experiment [1] (first compound 2.53 µM), 1.09. Moreover, the relative viability in experiment [1] (first compound 8 µM) is 1.08; with Masitinib + Palbociclib (first compound 0.01 µM) it was 0.163; with Masitinib + Palbociclib (first compound 0.03162 µM), 0.197; in the experiment with Masitinib + Palbociclib (first compound 0.1 µM), 0.227; with Masitinib + Palbociclib (first compound 0.3162 µM), 0.18; with Masitinib + Palbociclib (first compound 1 µM), 0.175.
Take NCI-H358: the relative viability with Masitinib + Phenformin (first compound 0.01 µM) was 0.316; with Masitinib + Phenformin (first compound 0.03162 µM), 0.346; with Masitinib + Phenformin (first compound 0.1 µM) it was 0.359; with Masitinib + Phenformin (first compound 0.3162 µM), 0.363; in the experiment with Masitinib + Phenformin (first compound 1 µM), 0.327; with Masitinib + Luminespib (first compound 0.01 µM), 0.21. Further, the relative viability in the experiment with Masitinib + Luminespib (first compound 0.03162 µM) turned out to be 0.299; with Masitinib + Luminespib (first compound 0.1 µM), 0.37; in the experiment with Masitinib + Luminespib (first compound 0.3162 µM), 0.342; in the experiment with Masitinib + Luminespib (first compound 1 µM), 0.186; in experiment [1] (first compound 0.08 µM), 0.433; in experiment [1] (first compound 0.253 µM) it was 0.476. In addition, the relative viability in experiment [1] (first compound 0.8 µM) amounted to 0.554; in experiment [1] (first compound 2.53 µM), 0.607; in experiment [1] (first compound 8 µM), 0.604; with Masitinib + Palbociclib (first compound 0.01 µM), 0.123; in the experiment with Masitinib + Palbociclib (first compound 0.03162 µM), 0.138; with Masitinib + Palbociclib (first compound 0.1 µM), 0.15. Moreover, the relative viability with Masitinib + Palbociclib (first compound 0.3162 µM) came out at 0.133; in the experiment with Masitinib + Palbociclib (first compound 1 µM) it was 0.136.
As to NCI-H1395, the relative viability turned out to be 0.42 in the experiment with Masitinib + Phenformin (first compound 0.01 µM); 0.442 with Masitinib + Phenformin (first compound 0.03162 µM); 0.473 with Masitinib + Phenformin (first compound 0.1 µM); 0.47 in the experiment with Masitinib + Phenformin (first compound 0.3162 µM); 0.424 with Masitinib + Phenformin (first compound 1 µM); 0.626 in the experiment with Masitinib + Luminespib (first compound 0.01 µM). The relative viability was found to be 0.682 with Masitinib + Luminespib (first compound 0.03162 µM); 0.864 in the experiment with Masitinib + Luminespib (first compound 0.1 µM); 0.506 with Masitinib + Luminespib (first compound 0.3162 µM); 0.611 with Masitinib + Luminespib (first compound 1 µM); 0.882 in experiment [1] (first compound 0.08 µM); 0.733 in experiment [1] (first compound 0.253 µM). The relative viability in experiment [1] (first compound 0.8 µM) worked out at 0.982; in experiment [1] (first compound 2.53 µM) it was 0.761; in experiment [1] (first compound 8 µM), 0.818; with Masitinib + Palbociclib (first compound 0.01 µM), 0.593; with Masitinib + Palbociclib (first compound 0.03162 µM) it was 0.653; with Masitinib + Palbociclib (first compound 0.1 µM), 0.643. The relative viability in the experiment with Masitinib + Palbociclib (first compound 0.3162 µM) is 0.562; in the experiment with Masitinib + Palbociclib (first compound 1 µM) it was 0.595.
In the case of SK-MES-1, the relative viability in the experiment with Masitinib + Phenformin (first compound 0.01 µM) was determined as 0.657; in the experiment with Masitinib + Phenformin (first compound 0.03162 µM), 0.691; with Masitinib + Phenformin (first compound 0.1 µM), 0.686; in the experiment with Masitinib + Phenformin (first compound 0.3162 µM) it was 0.659; with Masitinib + Phenformin (first compound 1 µM), 0.512; in the experiment with Masitinib + Luminespib (first compound 0.01 µM), 0.544. In addition, the relative viability with Masitinib + Luminespib (first compound 0.03162 µM) worked out at 0.776; in the experiment with Masitinib + Luminespib (first compound 0.1 µM) it was 0.992; with Masitinib + Luminespib (first compound 0.3162 µM), 0.707; with Masitinib + Luminespib (first compound 1 µM), 0.686; in experiment [1] (first compound 0.08 µM) it was 0.449; in experiment [1] (first compound 0.253 µM), 0.416. Moreover, the relative viability was found to be 0.378 in experiment [1] (first compound 0.8 µM); 0.432 in experiment [1] (first compound 2.53 µM); 0.369 in experiment [1] (first compound 8 µM); 0.306 in the experiment with Masitinib + Palbociclib (first compound 0.01 µM); 0.269 with Masitinib + Palbociclib (first compound 0.03162 µM); 0.318 with Masitinib + Palbociclib (first compound 0.1 µM). Further, the values for the relative viability in the experiment with Masitinib + Palbociclib (first compound 0.3162 µM) and with Masitinib + Palbociclib (first compound 1 µM) were 0.302 and 0.336, respectively.
PC-14: the relative viability came out at 0.458 with Masitinib + Phenformin (first compound 0.01 µM); 0.633 with Masitinib + Phenformin (first compound 0.03162 µM); 0.572 in the experiment with Masitinib + Phenformin (first compound 0.1 µM); 0.507 with Masitinib + Phenformin (first compound 0.3162 µM); 0.506 with Masitinib + Phenformin (first compound 1 µM); 0.15 in the experiment with Masitinib + Luminespib (first compound 0.01 µM). The relative viability with Masitinib + Luminespib (first compound 0.03162 µM) worked out at 0.222; in the experiment with Masitinib + Luminespib (first compound 0.1 µM), 0.246; with Masitinib + Luminespib (first compound 0.3162 µM), 0.151; with Masitinib + Luminespib (first compound 1 µM), 0.196; in experiment [1] (first compound 0.08 µM), 0.295; in experiment [1] (first compound 0.253 µM), 0.258. The relative viability in experiment [1] (first compound 0.8 µM) was 0.338; in experiment [1] (first compound 2.53 µM), 0.312; in experiment [1] (first compound 8 µM), 0.292; with Masitinib + Palbociclib (first compound 0.01 µM), 0.57; with Masitinib + Palbociclib (first compound 0.03162 µM) it was 0.323; in the experiment with Masitinib + Palbociclib (first compound 0.1 µM), 0.636. Besides, the figures for the relative viability in the experiment with Masitinib + Palbociclib (first compound 0.3162 µM) and with Masitinib + Palbociclib (first compound 1 µM) were 0.57 and 0.621, respectively.
Turning to CAL-12T, the relative viability in the experiment with Masitinib + Phenformin (first compound 0.01 µM) is 0.525; in the experiment with Masitinib + Phenformin (first compound 0.03162 µM), 0.637; with Masitinib + Phenformin (first compound 0.1 µM) it was 0.594; in the experiment with Masitinib + Phenformin (first compound 0.3162 µM) it was 0.553; with Masitinib + Phenformin (first compound 1 µM) it was 0.509; with Masitinib + Luminespib (first compound 0.01 µM), 0.513. For the same cell line, the relative viability is 0.403 with Masitinib + Luminespib (first compound 0.03162 µM); 0.363 in the experiment with Masitinib + Luminespib (first compound 0.1 µM); 0.469 with Masitinib + Luminespib (first compound 0.3162 µM); 0.306 in the experiment with Masitinib + Luminespib (first compound 1 µM); 0.534 in experiment [1] (first compound 0.08 µM); 0.649 in experiment [1] (first compound 0.8 µM). Also, the relative viability in experiment [1] (first compound 2.53 µM) came to 0.608; in experiment [1] (first compound 8 µM), 0.678; in the experiment with Masitinib + Palbociclib (first compound 0.01 µM), 0.445; in the experiment with Masitinib + Palbociclib (first compound 0.03162 µM), 0.333; with Masitinib + Palbociclib (first compound 0.1 µM), 0.455; with Masitinib + Palbociclib (first compound 0.3162 µM) it was 0.305. Also, the relative viability with Masitinib + Palbociclib (first compound 1 µM) is 0.502.
